Results from paper PMC6403271, “Characterization, mechanism of action and optimization of activity of a novel peptide-peptoid hybrid against bacterial pathogens involved in canine skin infections” (Scientific Reports, 2019).
Entries after “also recorded” stand apart in the source; their conditions may differ. Square brackets hold non-standard residues; d marks the D form. Peptide text beside a SMILES is read from it. N(1-naphthylmethyl)Gly = O=C(O)CNCc1cccc2ccccc12; N(4-MeBn)Gly = Cc1ccc(CNCC(=O)O)cc1; NBuGly = CCCCNCC(=O)O

Assays:
[1] = test system: DNA synthesis in MRSP E104; assay: Macromolecule biosynthesis rate, DNA (3H-Thymidine); type: cell-based, Staphylococcus pseudintermedius; details: MRSP E104, 1.5 µg/mL, 20 min
Protocol: Macromolecule biosynthesis rate was measured in MRSP E104 following a protocol adapted from Ling et al.[65]. Briefly, E104 overnight culture was sub-cultured 1:100 in MHB II and grown up to OD 0.2 at 600 nm. Cells were pelleted down by centrifugation and resuspended in fresh medium followed by incubation for 20 min with B1 or nisin at 1.5 µg/ml and 1.25 µg/ml, respectively, and radiolabeled precursor: (50µCi) 3H-Thymidine (PerkinElmer) and (5µCi) 3H-glucosamine hydrochloride per ml for DNA and cell wall, respectively. A positive control without antimicrobial was maintained. After incubation, samples were precipitated with equal volume of cold 30% TCA (Sigma) on ice. Precipitates were filtered on a membrane filter and subsequently subjected to two washes of cold 15% TCA and two washes of cold water using vacuum manifold. Subsequently, filters were air dried overnight and then transferred to 10 ml scintillation vials. Finally, scintillation fluid (3 ml) was added to each vial and ^3H count was taken in Beckman Coulter LS6500 liquid scintillation counter for one minute. The radioactive counts of the control samples were considered to have 100% precursor incorporation and macromolecule synthesis. The percentage rates of the antimicrobial-exposed samples were calculated accordingly. Each experiment was performed with replicates and the average rates of incorporation were plotted.

[2] = test system: human red blood cells; parameters: method as in PMID 29534469; details: at 150 µM; cited from earlier work
[3] = test system: membrane potential of MRSP E104; assay: DiSC3(5) fluorescence-based membrane potential study; type: cell-based, Staphylococcus pseudintermedius; details: MRSP E104, sub-inhibitory concentration 1.5 µg/mL
Protocol: Freshly sub-cultured E104 cells were labelled with 1 µM 3,3-Dipropylthiadicarbocyanine iodide [DiSC3(5)] (Sigma) in MHB II. The fluorescence spectra of labelled cells were plotted in the LS50B luminescence spectrometer (PerkinElmer) at excitation/emission wavelengths 546 nm/573 nm using time drive application of FLWINLAB software. After reading an initial stable emission spectra of DiSC3(5), labelled cells were treated with B1 or nisin or protonophore CCCP at 1, 1.5 and 1.25 µg/ml, respectively and the change of fluorescence over time was recorded. The increment of DiSC3(5) fluorescence upon addition of antimicrobials or CCCP (FUafter-treatment – FUbefore-treatment) was plotted. This experiment was performed twice and each time with two technical replicates.

CCCCN(CC(=O)N[C@@H](CCCCN)C(=O)N(CC(=O)N(CC(=O)N(CC(N)=O)Cc1cccc2ccccc12)Cc1ccc(C)cc1)Cc1cccc2ccccc12)C(=O)[C@H](CCCCN)NC(=O)[C@@H](N)CCCCN [B1, Lys-Lys-(NBu)Gly-Lys-(N1-Nal)Gly-(N4-MeBn)Gly-(N1-Nal)Gly] (H-KK[NBuGly]K[N(1-naphthylmethyl)Gly][N(4-MeBn)Gly][N(1-naphthylmethyl)Gly]-NH2)
effect on DNA replication [1]: without affecting DNA replication; also recorded: no effect on DNA replication | hemolytic activity [2]: 32% | membrane potential, DiSC3(5) fluorescence emission [3]: significant membrane depolarization
